# Measured values from patent publication US12180146B2, “Antihypertensive polyol compound and derivative thereof” (TAO PHARMACEUTICAL (SUZHOU) CO., LTD, priority 2020, dated 2024).
# System: spontaneously hypertensive rats (SHR)
# Assay: Antihypertensive activity test: blood pressure and heart rate of spontaneously hypertensive rats (SHR)
# Type: in vivo, rat
# Conditions: 200 mg/kg
# Method: Tested Drugs: Compounds of the Invention. The dosage of all compound was uniformly set to 200 mg/kg.
# In the test, changes in the blood pressure before and after the administration were detected, and compared with the basic value, a reduction of SBP ≥20 mmHg after administration was judged as effective antihypertensive effects; and at the same time, changes in the heart rate before and after the administration were detected.
# Heart rate was expressed as mean±standard deviation (x±s). The changes of heart rate before and after the administration were compared by using Two-sample equal variance paired t test, and P<0.05 was regarded as the standard of statistically significant difference.
# [1] = after administration (6 h M ± SD), n = 8
# [2] = before administration, M ± SD, n = 8
SMILES,"SBP Difference before and after administration, 1 h (1 h)","SHR blood pressure (SBP), time after administration 1 h (1 h, n = 8)","SBP Difference before and after administration, 2 h (2 h)","SHR blood pressure (SBP), time after administration 2 h (2 h, n = 8)","SBP Difference before and after administration, 3 h (3 h)","SHR blood pressure (SBP), time after administration 3 h (3 h, n = 8)","SBP Difference before and after administration, 4 h (4 h)","SHR blood pressure (SBP), time after administration 4 h (4 h, n = 8)","SBP Difference before and after administration, 5 h (5 h)","SHR blood pressure (SBP), time after administration 5 h (5 h, n = 8)","SBP Difference before and after administration, 6 h (6 h)","SHR blood pressure (SBP), time after administration 6 h (6 h, n = 8)",further results
OCC(O)c1cccc(Br)c1 (centres unmarked) [Compound 6],5 mmHg,184 ± 10.9 mmHg,9 mmHg,180 ± 12.4 mmHg,9 mmHg,180 ± 7.80 mmHg,6 mmHg,183 ± 6.56 mmHg,7 mmHg,182 ± 8.29 mmHg,1 mmHg,188 ± 13.2 mmHg,
CCC(O)c1cccc(CO)c1 (centres unmarked) [Compound 13],3 mmHg,186 ± 12.4 mmHg,12 mmHg,178 ± 12.0 mmHg,19 mmHg,171 ± 13.1 mmHg,14 mmHg,176 ± 11.4 mmHg,10 mmHg,180 ± 11.9 mmHg,14 mmHg,176 ± 10.1 mmHg,"SHR heart rate, time after administration 0 h (0 h, N = 8): 319 ± 21.0 beat/min; Heart rate Difference before and after administration, 1 h (1 h): 6 beat/min; SHR heart rate, time after administration 1 h (1 h, N = 8): 325 ± 24.2 beat/min; Heart rate Difference before and after administration, 2 h (2 h): 14 beat/min; SHR heart rate, time after administration 2 h (2 h, N = 8): 332 ± 38.9 beat/min; Heart rate Difference before and after administration, 3 h (3 h): 17 beat/min; SHR heart rate, time after administration 3 h (3 h, N = 8): 335 ± 43.8 beat/min; Heart rate Difference before and after administration, 4 h (4 h): 15 beat/min; SHR heart rate, time after administration 4 h (4 h, N = 8): 334 ± 45.8 beat/min; Heart rate Difference before and after administration, 5 h (5 h): 10 beat/min; SHR heart rate, time after administration 5 h (5 h, N = 8): 329 ± 39.5 beat/min; Heart rate Difference before and after administration, 6 h (6 h): 2 beat/min; SHR heart rate, time after administration 6 h (6 h, N = 8): 320 ± 43.1 beat/min; Blood pressure (SBP, mmHg) After administration [1]: 178 ± 11.2 mmHg; Heart rate (beat/min) After administration [1]: 329 ± 27.7 beat/min; Heart rate Difference (beat/min) (after administration minus baseline (6 h)): 10 beat/min; Blood pressure Difference mmHg (baseline minus after administration (6 h)): 12 mmHg; Blood pressure (SBP, mmHg) Baseline [2]: 190 ± 13.2 mmHg; Heart rate (beat/min) Baseline [2]: 319 ± 21.0 beat/min"
COP(=O)(OC)OCC(O)c1ccccc1 (centres unmarked) [Compound 20],6 mmHg,186 ± 9.55 mmHg,10 mmHg,182 ± 7.36 mmHg,3 mmHg,189 ± 4.07 mmHg,9 mmHg,183 ± 7.15 mmHg,7 mmHg,185 ± 5.61 mmHg,2 mmHg,190 ± 6.66 mmHg,"SHR blood pressure (SBP), time after administration 0 h (0 h, n = 8): 192 ± 7.98 mmHg"
CCOC(=O)OC(CO)c1cccc(CC)c1 (centres unmarked) [Compound 19],12 mmHg,182 ± 11.6 mmHg,16 mmHg,178 ± 10.8 mmHg,17 mmHg,177 ± 10.9 mmHg,13 mmHg,181 ± 15.80 mmHg,10 mmHg,184 ± 16.0 mmHg,8 mmHg,186 ± 17.7 mmHg,
OCC(O)C(OC1OC(CO)C(O)C(O)C1O)c1ccc(O)cc1 (centres unmarked) [Compound 18],16 mmHg,176 ± 6.39 mmHg,18 mmHg,174 ± 4.50 mmHg,21 mmHg,171 ± 9.15 mmHg,19 mmHg,173 ± 13.7 mmHg,18 mmHg,174 ± 15.9 mmHg,14 mmHg,178 ± 8.78 mmHg,
OCC(O)c1ccccc1 (centres unmarked) [Compound 2],16 mmHg,169 ± 6.39 mmHg,18 mmHg,167 ± 4.50 mmHg,19 mmHg,166 ± 9.15 mmHg,19 mmHg,166 ± 13.7 mmHg,20 mmHg,165 ± 15.3 mmHg,15 mmHg,170 ± 8.77 mmHg,
CCc1cccc(C(CO)OC(=O)CN)c1 (centres unmarked) [Compound 23],10 mmHg,186 ± 6.39 mmHg,9 mmHg,187 ± 4.66 mmHg,15 mmHg,181 ± 9.15 mmHg,13 mmHg,183 ± 13.7 mmHg,18 mmHg,178 ± 15.9 mmHg,18 mmHg,178 ± 8.78 mmHg,
COc1cc(C(O)CO)ccc1O (centres unmarked) [Compound 25],8 mmHg,191 ± 6.64 mmHg,10 mmHg,189 ± 7.77 mmHg,11 mmHg,186 ± 8.18 mmHg,15 mmHg,184 ± 4.56 mmHg,12 mmHg,187 ± 14.2 mmHg,11 mmHg,188 ± 5.55 mmHg,
